Assay results as given in ChEMBL document CHEMBL1201862, “PubChem BioAssay data set” (2004).
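Assay format: 96-well plates, 48-hour exposure. GI50 is the concentration that inhibits growth by half.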 The source made the active and inactive calls. No stated cut-off is given here; in the data, active = GI50 up to about 1.1 µM and inactive = higher.

Tests used:
Assay in all cases: DTP human tumour cell line panel, 48 h
HOP-92 = system: HOP-92
K562 = system: K562
SNB-78 = system: SNB-78
NCI-H226 = system: NCI-H226
HOP-18 = system: HOP-18
IGROV-1 = system: IGROV-1
KM12 = system: KM12
KM-20L2 = system: KM-20L2
HT-29 = system: HT-29
SNB-19 = system: SNB-19
SK-OV-3 = system: SK-OV-3
OVCAR-5 = system: OVCAR-5
ACHN = system: ACHN
EKVX = system: EKVX
LOX IMVI = system: LOX IMVI
NCI-H23 = system: NCI-H23
Malme-3M = system: Malme-3M
SN12C = system: SN12C
RXF 631 = system: RXF 631
CAKI-1 = system: CAKI-1
SF-268 = system: SF-268
SF-295 = system: SF-295
A549 = system: A549
SR = system: SR
OVCAR-4 = system: OVCAR-4
TK-10 = system: TK-10
M19-MEL = system: M19-MEL
A498 = system: A498
SW-620 = system: SW-620
786-0 = system: 786-0
RXF 393 = system: RXF 393
NCI-H460 = system: NCI-H460
COLO 205 = system: COLO 205
HOP-62 = system: HOP-62
SK-MEL-28 = system: SK-MEL-28
SF-539 = system: SF-539
HL-60 = system: HL-60
OVCAR-8 = system: OVCAR-8
LXFL 529 = system: LXFL 529
SK-MEL-5 = system: SK-MEL-5
UACC-257 = system: UACC-257
DMS-273 = system: DMS-273
UO-31 = system: UO-31
MOLT-4 = system: MOLT-4
DLD-1 = system: DLD-1
SK-MEL-2 = system: SK-MEL-2
DMS-114 = system: DMS-114
UACC-62 = system: UACC-62
U-251 = system: U-251
CCRF-CEM = system: CCRF-CEM
OVCAR-3 = system: OVCAR-3
M14 = system: M14
HCT-15 = system: HCT-15
HCT-116 = system: HCT-116
SNB-75 = system: SNB-75
NCI-H522 = system: NCI-H522
HCC 2998 = system: HCC 2998

For `CCN(CC)c1c(C(=O)/C=C/c2ccc(OC)cc2)c(-c2ccccc2)nn(C)c1=O`, the GI50 (HOP-92) was 6.07 µM (inactive), the GI50 (K562) was 9.06 µM (inactive) and the GI50 (SNB-78) was 25 µM (inactive). For the same compound, the GI50 (NCI-H226) was 16.1 µM (inactive), the GI50 (HOP-18) was 22.2 µM (inactive) and the GI50 (IGROV-1) was 19.2 µM (inactive). The GI50 (KM12) was 12.7 µM (inactive), the GI50 (KM-20L2) was 15.4 µM (inactive) and the GI50 (HT-29) was 9.51 µM (inactive). For the same compound, the GI50 (SNB-19) was 17.8 µM (inactive), the GI50 (SK-OV-3) was 36 µM (inactive) and the GI50 (OVCAR-5) was 5.46 µM (inactive). The GI50 (ACHN) was 10.9 µM (inactive), the GI50 (EKVX) was 8 µM (inactive) and the GI50 (LOX IMVI) was 14.9 µM (inactive). For the same compound, the GI50 (NCI-H23) was 10.4 µM (inactive), the GI50 (Malme-3M) was 15.1 µM (inactive) and the GI50 (SN12C) was 21 µM (inactive). For the same compound, the GI50 (RXF 631) was 20.6 µM (inactive), the GI50 (CAKI-1) was 29.8 µM (inactive) and the GI50 (SF-268) was 6.52 µM (inactive). The GI50 (SF-295) was 21.5 µM (inactive), the GI50 (A549) was 12 µM (inactive) and the GI50 (SR) was 5.55 µM (inactive). For the same compound, the GI50 (OVCAR-4) was 8.75 µM (inactive), the GI50 (TK-10) was 32.8 µM (inactive) and the GI50 (M19-MEL) was 6.34 µM (inactive). The GI50 (A498) was 20.9 µM (inactive), the GI50 (SW-620) was 26.5 µM (inactive) and the GI50 (786-0) was 14.1 µM (inactive). The GI50 (RXF 393) was 10.6 µM (inactive), the GI50 (NCI-H460) was 7.83 µM (inactive) and the GI50 (COLO 205) was 3.87 µM (inactive). The GI50 (HOP-62) was 45.9 µM (inactive), the GI50 (SK-MEL-28) was 16.7 µM (inactive) and the GI50 (SF-539) was 17.1 µM (inactive). The GI50 (HL-60) was 6.7 µM (inactive), the GI50 (OVCAR-8) was 22.2 µM (inactive) and the GI50 (LXFL 529) was 10.7 µM (inactive). For the same compound, the GI50 (SK-MEL-5) was 8.41 µM (inactive), the GI50 (UACC-257) was 19.6 µM (inactive) and the GI50 (DMS-273) was 2.37 µM (inactive). The GI50 (UO-31) was 36.6 µM (inactive), the GI50 (MOLT-4) was 2.67 µM (inactive) and the GI50 (DLD-1) was 12.1 µM (inactive). For the same compound, the GI50 (SK-MEL-2) was 18.6 µM (inactive), the GI50 (DMS-114) was 13.4 µM (inactive) and the GI50 (UACC-62) was 10.5 µM (inactive). The GI50 (U-251) was 13.5 µM (inactive) and the GI50 (CCRF-CEM) was 6.78 µM (inactive).

With `CC(C)(C)c1cc2ccc(C(N)=O)cc2c(=O)[nH]1` the GI50 (HOP-92) was 95.1 µM (inactive), the GI50 (K562) was > 100 µM (inactive) and the GI50 (SNB-78) was > 100 µM (inactive). For the same compound, the GI50 (OVCAR-3) was > 100 µM (inactive), the GI50 (NCI-H226) was 56 µM (inactive) and the GI50 (HOP-18) was > 100 µM (inactive). The GI50 (IGROV-1) was > 100 µM (inactive), the GI50 (KM12) was 59.3 µM (inactive) and the GI50 (KM-20L2) was > 100 µM (inactive). The GI50 (HT-29) was > 100 µM (inactive), the GI50 (SNB-19) was > 100 µM (inactive) and the GI50 (SK-OV-3) was > 100 µM (inactive). For the same compound, the GI50 (OVCAR-5) was > 100 µM (inactive), the GI50 (ACHN) was > 100 µM (inactive) and the GI50 (EKVX) was 82.4 µM (inactive). For the same compound, the GI50 (LOX IMVI) was 62.7 µM (inactive), the GI50 (NCI-H23) was > 100 µM (inactive) and the GI50 (Malme-3M) was > 100 µM (inactive). The GI50 (SN12C) was > 100 µM (inactive), the GI50 (RXF 631) was > 100 µM (inactive) and the GI50 (CAKI-1) was 80.2 µM (inactive). The GI50 (SF-268) was > 100 µM (inactive), the GI50 (SF-295) was > 100 µM (inactive) and the GI50 (A549) was > 100 µM (inactive). The GI50 (SR) was > 100 µM (inactive), the GI50 (OVCAR-4) was > 100 µM (inactive) and the GI50 (TK-10) was > 100 µM (inactive). The GI50 (M19-MEL) was > 100 µM (inactive), the GI50 (A498) was > 100 µM (inactive) and the GI50 (M14) was > 100 µM (inactive). For the same compound, the GI50 (SW-620) was > 100 µM (inactive), the GI50 (786-0) was > 100 µM (inactive) and the GI50 (RXF 393) was 44.9 µM (inactive). For the same compound, the GI50 (NCI-H460) was > 100 µM (inactive), the GI50 (COLO 205) was > 100 µM (inactive) and the GI50 (HOP-62) was > 100 µM (inactive). The GI50 (SK-MEL-28) was > 100 µM (inactive), the GI50 (SF-539) was 46.8 µM (inactive) and the GI50 (HL-60) was 79.8 µM (inactive). For the same compound, the GI50 (OVCAR-8) was > 100 µM (inactive), the GI50 (LXFL 529) was > 100 µM (inactive) and the GI50 (HCT-15) was > 100 µM. For the same compound, the GI50 (SK-MEL-5) was > 100 µM (inactive), the GI50 (UACC-257) was > 100 µM (inactive) and the GI50 (DMS-273) was > 100 µM (inactive). For the same compound, the GI50 (UO-31) was 63.8 µM (inactive), the GI50 (HCT-116) was 69.7 µM (inactive) and the GI50 (MOLT-4) was > 100 µM (inactive). The GI50 (DLD-1) was > 100 µM (inactive), the GI50 (SK-MEL-2) was > 100 µM (inactive) and the GI50 (DMS-114) was > 100 µM (inactive). The GI50 (UACC-62) was > 100 µM (inactive), the GI50 (U-251) was 51.3 µM (inactive) and the GI50 (CCRF-CEM) was > 100 µM (inactive). For the same compound, the GI50 (SNB-75) was 27.2 µM (inactive), the GI50 (NCI-H522) was > 100 µM (inactive) and the GI50 (HCC 2998) was > 100 µM (inactive).
